Laboratory results published in patent US10457709B2, “Antimicrobial peptides, their variants and uses” (priority 2015, dated 2019).
Read-outs that look alike come from different tables or passages of the source. Square brackets hold non-standard residues; d marks the D form. Peptide text beside a SMILES is read from it.

Key:
[1] = system: Candida albicans clinical strains; test: MIC, clinical yeast strains; type: cell-based; design: unit: μg/ml
Outline: (§1)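 MIC recorded as the lowest peptide level, within 0.125–128 μg/ml, that left no visible growth after 20–24 h at 37° C. Inoculum was 5.0×10^5 cfu/ml of clinical isolates. Medium was potato dextrose broth for yeasts and Mueller Hinton broth for bacteria, in a broth microdilution format.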

[2] = system: C. quillermondiae clinical strains; test: MIC, clinical yeast strains; type: cell-based, Candida quillermondiae; design: unit: μg/ml; details: C. quillermondiae clinical yeast strain 1
Outline: as §1

[3] = system: C. parapsilosis clinical strains; test: MIC, clinical yeast strains; type: cell-based, Candida parapsilosis; design: unit: µg/ml
Outline: as §1

[4] = system: Streptococcus pneumoniae clinical strains; type: cell-based; design: Minimum inhibitory concentration: unit: μg/ml; details: microdilution, Muller Hinton broth-cation adjusted, 0.02% BSA, 0.2% acetic acid
Outline: as §1

[5] = system: Serratia marcescens clinical strains; type: cell-based; design: Minimum inhibitory concentration: unit: μg/ml; details: microdilution, Muller Hinton broth-cation adjusted, 0.02% BSA, 0.2% acetic acid
Outline: as §1

[6] = system: Proteus mirabilis clinical strains; type: cell-based; design: Minimum inhibitory concentration: unit: μg/ml; details: microdilution, Muller Hinton broth-cation adjusted, 0.02% BSA, 0.2% acetic acid
Outline: as §1

[7] = system: Staphylococcus aureus clinical strains; type: cell-based; design: Minimum inhibitory concentration: unit: μg/ml; details: microdilution, Muller Hinton broth-cation adjusted, 0.02% BSA, 0.2% acetic acid
Outline: as §1

[8] = system: Enterobacter cloacae clinical strains; type: cell-based; design: Minimum inhibitory concentration: unit: μg/ml; details: microdilution, Muller Hinton broth-cation adjusted, 0.02% BSA, 0.2% acetic acid
Outline: as §1

[9] = system: Escherichia coli clinical strains; type: cell-based; details: microdilution, Muller Hinton broth-cation adjusted, 0.02% BSA, 0.2% acetic acid
Outline: as §1

[10] = system: Pseudomonas aeruginosa clinical strains; type: cell-based; details: microdilution, Muller Hinton broth-cation adjusted, 0.02% BSA, 0.2% acetic acid
Outline: as §1

[11] = system: Klebsiella pneumoniae clinical strains; type: cell-based; details: microdilution, Muller Hinton broth-cation adjusted, 0.02% BSA, 0.2% acetic acid
Outline: as §1

[12] = system: C. glabrata clinical strains; test: MIC, clinical yeast strains; type: cell-based, Candida glabrata; design: unit: µg/ml
Outline: as §1

[13] = Candida albicans clinical yeast strain 1
[14] = Candida albicans clinical yeast strain 2
[15] = Candida albicans clinical yeast strain 3
[16] = Candida albicans clinical yeast strain 4
[17] = Candida albicans clinical yeast strain 5
[18] = C. parapsilosis clinical yeast strain 1
[19] = C. parapsilosis clinical yeast strain 2
[20] = C. parapsilosis clinical yeast strain 3
[21] = C. parapsilosis clinical yeast strain 4
[22] = Streptococcus pneumoniae clinical strain 1
[23] = Streptococcus pneumoniae clinical strain 2
[24] = Streptococcus pneumoniae clinical strain 3
[25] = Streptococcus pneumoniae clinical strain 4
[26] = Streptococcus pneumoniae clinical strain 5
[27] = Serratia marcescens clinical strain 1
[28] = Serratia marcescens clinical strain 2
[29] = Serratia marcescens clinical strain 3
[30] = Serratia marcescens clinical strain 4
[31] = Serratia marcescens clinical strain 5
[32] = Proteus mirabilis clinical strain 1
[33] = Proteus mirabilis clinical strain 2
[34] = Proteus mirabilis clinical strain 3
[35] = Proteus mirabilis clinical strain 4
[36] = Proteus mirabilis clinical strain 5
[37] = Staphylococcus aureus clinical strain 1
[38] = Staphylococcus aureus clinical strain 2
[39] = Staphylococcus aureus clinical strain 3
[40] = Staphylococcus aureus clinical strain 4
[41] = Staphylococcus aureus clinical strain 5
[42] = Enterobacter cloacae clinical strain 1
[43] = Enterobacter cloacae clinical strain 2
[44] = Enterobacter cloacae clinical strain 3
[45] = Enterobacter cloacae clinical strain 4
[46] = Enterobacter cloacae clinical strain 5
[47] = Escherichia coli clinical strain 1
[48] = Escherichia coli clinical strain 2
[49] = Escherichia coli clinical strain 3
[50] = Escherichia coli clinical strain 4
[51] = Escherichia coli clinical strain 5
[52] = Pseudomonas aeruginosa clinical strain 1
[53] = Pseudomonas aeruginosa clinical strain 2
[54] = Pseudomonas aeruginosa clinical strain 3
[55] = Pseudomonas aeruginosa clinical strain 4
[56] = Pseudomonas aeruginosa clinical strain 5
[57] = Klebsiella pneumoniae clinical strain 1
[58] = Klebsiella pneumoniae clinical strain 2
[59] = Klebsiella pneumoniae clinical strain 3
[60] = Klebsiella pneumoniae clinical strain 4
[61] = Klebsiella pneumoniae clinical strain 5
[62] = C. glabrata clinical yeast strain 1
[63] = C. glabrata clinical yeast strain 2
[64] = C. glabrata clinical yeast strain 3
[65] = C. glabrata clinical yeast strain 4

Structure (SMILES): CC[C@@H](C)[C@@H](N)C(=O)N[C@H](Cc1c[nH]c2ccccc12)C(=O)N[C@H](CCCCN)C(=O)N[C@H](CCCNC(=N)N)C(=O)N[C@H](Cc1ccccc1)C(=O)N[C@H](CCCNC(=N)N)C(=O)N[C@H](CC(C)C)C(=O)N[C@H](Cc1ccccc1)C(=O)N[C@H](CCCCN)C(=O)N[C@H](CCCCN)C(=O)N[C@H](Cc1c[nH]c2ccccc12)C(=O)O [Chain304D] (H-[dI][dW][dK][dR][dF][dR][dL][dF][dK][dK][dW]-OH)
- Minimum inhibitory concentration [1, 13]: 16
- Minimum inhibitory concentration [1, 14]: 16
- Minimum inhibitory concentration [1, 15]: 16
- Minimum inhibitory concentration [1, 16]: 16
- Minimum inhibitory concentration [1, 17]: 32
- Minimum inhibitory concentration [2]: 16
- Minimum inhibitory concentration [3, 18]: 64
- Minimum inhibitory concentration [3, 19]: 64
- Minimum inhibitory concentration [3, 20]: 32
- Minimum inhibitory concentration [3, 21]: 16
- Minimum inhibitory concentration [4, 22]: 128
- Minimum inhibitory concentration [4, 23]: 128
- Minimum inhibitory concentration [4, 24]: 128
- Minimum inhibitory concentration [4, 25]: 128
- Minimum inhibitory concentration [4, 26]: 64
- Minimum inhibitory concentration [5, 27]: >128
- Minimum inhibitory concentration [5, 28]: >128
- Minimum inhibitory concentration [5, 29]: >128
- Minimum inhibitory concentration [5, 30]: >128
- Minimum inhibitory concentration [5, 31]: >128
- Minimum inhibitory concentration [6, 32]: >128
- Minimum inhibitory concentration [6, 33]: >128
- Minimum inhibitory concentration [6, 34]: >128
- Minimum inhibitory concentration [6, 35]: >128
- Minimum inhibitory concentration [6, 36]: >128
- Minimum inhibitory concentration [7, 37]: 32
- Minimum inhibitory concentration [7, 38]: 32
- Minimum inhibitory concentration [7, 39]: 16
- Minimum inhibitory concentration [7, 40]: 16
- Minimum inhibitory concentration [7, 41]: 16
- Minimum inhibitory concentration [8, 42]: 64
- Minimum inhibitory concentration [8, 43]: 64
- Minimum inhibitory concentration [8, 44]: 128
- Minimum inhibitory concentration [8, 45]: 128
- Minimum inhibitory concentration [8, 46]: 32
- Minimum inhibitory concentration [9, 47]: 1
- Minimum inhibitory concentration [9, 48]: 16
- Minimum inhibitory concentration [9, 49]: 16
- Minimum inhibitory concentration [9, 50]: 32
- Minimum inhibitory concentration [9, 51]: 32
- Minimum inhibitory concentration [10, 52]: 32
- Minimum inhibitory concentration [10, 53]: 64
- Minimum inhibitory concentration [10, 54]: 64
- Minimum inhibitory concentration [10, 55]: 64
- Minimum inhibitory concentration [10, 56]: 16
- Minimum inhibitory concentration [11, 57]: >128
- Minimum inhibitory concentration [11, 58]: >128
- Minimum inhibitory concentration [11, 59]: >128
- Minimum inhibitory concentration [11, 60]: >128
- Minimum inhibitory concentration [11, 61]: 64
- Minimum inhibitory concentration [12, 62]: 16
- Minimum inhibitory concentration [12, 63]: 16
- Minimum inhibitory concentration [12, 64]: 8
- Minimum inhibitory concentration [12, 65]: 64

Structure (SMILES): CC(C)C[C@@H](NC(=O)[C@@H](CCCCN)NC(=O)[C@@H](CCCCN)NC(=O)[C@@H](Cc1ccccc1)NC(=O)[C@@H](CC(C)C)NC(=O)[C@@H](Cc1c[nH]c2ccccc12)NC(=O)[C@@H](CCCNC(=N)N)NC(=O)[C@@H](Cc1c[nH]c2ccccc12)NC(=O)[C@@H](CCCCN)NC(=O)[C@@H](CCCNC(=N)N)NC(=O)[C@H](N)CCCCN)C(=O)O [Chain310D] (H-[dK][dR][dK][dW][dR][dW][dL][dF][dK][dK][dL]-OH)
- Minimum inhibitory concentration [1, 13]: 16
- Minimum inhibitory concentration [1, 14]: 16
- Minimum inhibitory concentration [1, 15]: 16
- Minimum inhibitory concentration [1, 16]: 16
- Minimum inhibitory concentration [1, 17]: 16
- Minimum inhibitory concentration [2]: 8
- Minimum inhibitory concentration [3, 18]: 64
- Minimum inhibitory concentration [3, 19]: 64
- Minimum inhibitory concentration [3, 20]: 64
- Minimum inhibitory concentration [3, 21]: 16
- Minimum inhibitory concentration [4, 22]: 128
- Minimum inhibitory concentration [4, 23]: 128
- Minimum inhibitory concentration [4, 24]: 128
- Minimum inhibitory concentration [4, 25]: 128
- Minimum inhibitory concentration [4, 26]: 64
- Minimum inhibitory concentration [5, 27]: >128
- Minimum inhibitory concentration [5, 28]: >128
- Minimum inhibitory concentration [5, 29]: >128
- Minimum inhibitory concentration [5, 30]: >128
- Minimum inhibitory concentration [5, 31]: >128
- Minimum inhibitory concentration [6, 32]: >128
- Minimum inhibitory concentration [6, 33]: >128
- Minimum inhibitory concentration [6, 34]: >128
- Minimum inhibitory concentration [6, 35]: >128
- Minimum inhibitory concentration [6, 36]: >128
- Minimum inhibitory concentration [7, 37]: 8
- Minimum inhibitory concentration [7, 38]: 16
- Minimum inhibitory concentration [7, 39]: 8
- Minimum inhibitory concentration [7, 40]: 8
- Minimum inhibitory concentration [7, 41]: 4
- Minimum inhibitory concentration [8, 42]: 128
- Minimum inhibitory concentration [8, 43]: 64
- Minimum inhibitory concentration [8, 44]: 16
- Minimum inhibitory concentration [8, 45]: 8
- Minimum inhibitory concentration [8, 46]: 16
- Minimum inhibitory concentration [9, 47]: 4
- Minimum inhibitory concentration [9, 48]: 32
- Minimum inhibitory concentration [9, 49]: 16
- Minimum inhibitory concentration [9, 50]: 16
- Minimum inhibitory concentration [9, 51]: 16
- Minimum inhibitory concentration [10, 52]: 8
- Minimum inhibitory concentration [10, 53]: 16
- Minimum inhibitory concentration [10, 54]: 16
- Minimum inhibitory concentration [10, 55]: 8
- Minimum inhibitory concentration [10, 56]: 4
- Minimum inhibitory concentration [11, 57]: 64
- Minimum inhibitory concentration [11, 58]: 64
- Minimum inhibitory concentration [11, 59]: 128
- Minimum inhibitory concentration [11, 60]: 64
- Minimum inhibitory concentration [11, 61]: 32
- Minimum inhibitory concentration [12, 62]: 16
- Minimum inhibitory concentration [12, 63]: 16
- Minimum inhibitory concentration [12, 64]: 128
- Minimum inhibitory concentration [12, 65]: 128
